Test results reported in ChEMBL document CHEMBL3792365, “Dioxol and dihydrodioxin analogs of 2- and 3-phenylacetonitriles as potent anti-cancer agents with nanomolar activity against a variety of human cancer cells” (2016).

What was measured:
Format in all cases: functional
SR = experiment: Growth inhibition of human SR cells at 10 uM after 48 hrs by sulforhodamine B assay; settings: values are per cent of control
[1] = Growth inhibition of human SKOV3 cells at 10 uM after 48 hrs by sulforhodamine B assay; settings: SK-OV-3, 48 h, values are per cent of control
[2] = Growth inhibition of human HCT116 cells at 10 uM after 48 hrs by sulforhodamine B assay; settings: HCT-116, 48 h, values are per cent of control
[3] = Growth inhibition of human BT549 cells at 10 uM after 48 hrs by sulforhodamine B assay; settings: BT-549, 48 h, values are per cent of control
HT-29 = experiment: Growth inhibition of human HT-29 cells at 10 uM after 48 hrs by sulforhodamine B assay; settings: HT-29, 48 h, values are per cent of control
[4] = Growth inhibition of human SW620 cells at 10 uM after 48 hrs by sulforhodamine B assay; settings: SW-620, 48 h, values are per cent of control
[5] = Growth inhibition of human SNB19 cells at 10 uM after 48 hrs by sulforhodamine B assay; settings: SNB-19, 48 h, values are per cent of control
[6] = Growth inhibition of human OVCAR8 cells at 10 uM after 48 hrs by sulforhodamine B assay; settings: OVCAR-8, 48 h, values are per cent of control
[7] = Growth inhibition of human Hs 578T cells at 10 uM after 48 hrs by sulforhodamine B assay; settings: values are per cent of control
MDA-MB-231 = experiment: Growth inhibition of human MDA-MB-231 cells at 10 uM after 48 hrs by sulforhodamine B assay; settings: MDA-MB-231, 48 h, values are per cent of control
[8] = Growth inhibition of human NCI-ADR-RES cells at 10 uM after 48 hrs by sulforhodamine B assay; settings: values are per cent of control
[9] = Growth inhibition of human SF539 cells at 10 uM after 48 hrs by sulforhodamine B assay; settings: SF-539, 48 h, values are per cent of control
[10] = Growth inhibition of human SF268 cells at 10 uM after 48 hrs by sulforhodamine B assay; settings: SF-268, 48 h, values are per cent of control
U-251 = experiment: Growth inhibition of human U251 cells at 10 uM after 48 hrs by sulforhodamine B assay; settings: U-251, 48 h, values are per cent of control
M14 = experiment: Growth inhibition of human M14 cells at 10 uM after 48 hrs by sulforhodamine B assay; settings: M14, 48 h, values are per cent of control
MDA-MB-468 = experiment: Growth inhibition of human MDA-MB-468 cells at 10 uM after 48 hrs by sulforhodamine B assay; settings: MDA-MB-468, 48 h, values are per cent of control
[11] = Growth inhibition of human DU145 cells at 10 uM after 48 hrs by sulforhodamine B assay; settings: DU-145, 48 h, values are per cent of control
[12] = Growth inhibition of human OVCAR5 cells at 10 uM after 48 hrs by sulforhodamine B assay; settings: OVCAR-5, 48 h, values are per cent of control
[13] = Growth inhibition of human Caki1 cells at 10 uM after 48 hrs by sulforhodamine B assay; settings: CAKI-1, 48 h, values are per cent of control
[14] = Growth inhibition of human TK10 cells at 10 uM after 48 hrs by sulforhodamine B assay; settings: TK-10, 48 h, values are per cent of control
[15] = Growth inhibition of human SF295 cells at 10 uM after 48 hrs by sulforhodamine B assay; settings: SF-295, 48 h, values are per cent of control
[16] = Growth inhibition of human HCT15 cells at 10 uM after 48 hrs by sulforhodamine B assay; settings: HCT-15, 48 h, values are per cent of control
NCI-H522 = experiment: Growth inhibition of human NCI-H522 cells at 10 uM after 48 hrs by sulforhodamine B assay; settings: NCI-H522, 48 h, values are per cent of control
A549 = experiment: Growth inhibition of human A549/ATCC cells at 10 uM after 48 hrs by sulforhodamine B assay; settings: A549, 48 h, values are per cent of control
T47D = experiment: Growth inhibition of human T47D cells at 10 uM after 48 hrs by sulforhodamine B assay; settings: values are per cent of control
SK-MEL-5 = experiment: Growth inhibition of human SK-MEL-5 cells at 10 uM after 48 hrs by sulforhodamine B assay; settings: SK-MEL-5, 48 h, values are per cent of control
MDA-MB-435 = experiment: Growth inhibition of human MDA-MB-435 cells at 10 uM after 48 hrs by sulforhodamine B assay; settings: MDA-MB-435, 48 h, values are per cent of control
NCI-H322M = experiment: Growth inhibition of human NCI-H322M cells at 10 uM after 48 hrs by sulforhodamine B assay; settings: values are per cent of control
K562 = experiment: Growth inhibition of human K562 cells at 10 uM after 48 hrs by sulforhodamine B assay; settings: K562, 48 h, values are per cent of control
[17] = Growth inhibition of human LOXIMVI cells at 10 uM after 48 hrs by sulforhodamine B assay; settings: LOX IMVI, values are per cent of control
A498 = experiment: Growth inhibition of human A498 cells at 10 uM after 48 hrs by sulforhodamine B assay; settings: A498, 48 h, values are per cent of control
ACHN = experiment: Growth inhibition of human ACHN cells at 10 uM after 48 hrs by sulforhodamine B assay; settings: values are per cent of control
SN12C = experiment: Growth inhibition of human SN12C cells at 10 uM after 48 hrs by sulforhodamine B assay; settings: values are per cent of control
[18] = Growth inhibition of human UACC62 cells at 10 uM after 48 hrs by sulforhodamine B assay; settings: UACC-62, 48 h, values are per cent of control
NCI-H460 = experiment: Growth inhibition of human NCI-H460 cells at 10 uM after 48 hrs by sulforhodamine B assay; settings: NCI-H460, 48 h, values are per cent of control
NCI-H226 = experiment: Growth inhibition of human NCI-H226 cells at 10 uM after 48 hrs by sulforhodamine B assay; settings: NCI-H226, 48 h, values are per cent of control
[19] = Growth inhibition of human COLO205 cells at 10 uM after 48 hrs by sulforhodamine B assay; settings: COLO 205, 48 h, values are per cent of control
[20] = Growth inhibition of human OVCAR4 cells at 10 uM after 48 hrs by sulforhodamine B assay; settings: OVCAR-4, 48 h, values are per cent of control
KM12 = experiment: Growth inhibition of human KM12 cells at 10 uM after 48 hrs by sulforhodamine B assay; settings: KM12, 48 h, values are per cent of control
NCI-H23 = experiment: Growth inhibition of human NCI-H23 cells at 10 uM after 48 hrs by sulforhodamine B assay; settings: NCI-H23, 48 h, values are per cent of control

SMILES	growth, % of control at 10 µM (SR) [%]	growth, % of control at 10 µM [1] [%]	growth, % of control at 10 µM [2] [%]	growth, % of control at 10 µM [3] [%]	growth, % of control at 10 µM (HT-29) [%]	growth, % of control at 10 µM [4] [%]	growth, % of control at 10 µM [5] [%]	growth, % of control at 10 µM [6] [%]	growth, % of control at 10 µM [7] [%]	growth, % of control at 10 µM (MDA-MB-231) [%]	growth, % of control at 10 µM [8] [%]	growth, % of control at 10 µM [9] [%]	growth, % of control at 10 µM [10] [%]	growth, % of control at 10 µM (U-251) [%]	growth, % of control at 10 µM (M14) [%]	growth, % of control at 10 µM (MDA-MB-468) [%]	growth, % of control at 10 µM [11] [%]	growth, % of control at 10 µM [12] [%]	growth, % of control at 10 µM [13] [%]	growth, % of control at 10 µM [14] [%]	further results
N#C/C(=C\c1ccc2ccccc2n1)c1ccc2c(c1)OCO2	60.5	25.8	20.5	86.1	71.9	89.9	34.7	60.8	34.8	50.2	64.3	69.6	62.5	26.7	90.3	77.8	81.3	81.1	76	45	growth, % of control at 10 µM [15]: 64%; growth, % of control at 10 µM [16]: 79.7%; growth, % of control at 10 µM (NCI-H522): 58.8%; growth, % of control at 10 µM (A549): 56.8%; growth, % of control at 10 µM (T47D): 69.4%; growth, % of control at 10 µM (SK-MEL-5): 95.3%; growth, % of control at 10 µM (MDA-MB-435): 48.3%; growth, % of control at 10 µM (NCI-H322M): 66.6%; growth, % of control at 10 µM (K562): 70.3%; growth, % of control at 10 µM [17]: 59.5%; growth, % of control at 10 µM (A498): 54.1%; growth, % of control at 10 µM (ACHN): 41.4%; growth, % of control at 10 µM (SN12C): 73%; growth, % of control at 10 µM [18]: 86.8%; growth, % of control at 10 µM (NCI-H460): 24.7%; growth, % of control at 10 µM (NCI-H226): 70.8%; growth, % of control at 10 µM [19]: 104%; growth, % of control at 10 µM [20]: 45%; growth, % of control at 10 µM (KM12): 86.8%; growth, % of control at 10 µM (NCI-H23): 58.8%
COc1ccc(/C=C(\C#N)c2ccc3c(c2)OCO3)c(Cl)c1OC	51.1	89.2	71.4	64.1	70.3	62.3	89.6	100	81.9	82.3	60.5	91.8	98.2	95.5	72.4	48.8	104	92.8	79.3	87.6	growth, % of control at 10 µM [15]: 91.1%; growth, % of control at 10 µM [16]: 63.9%; growth, % of control at 10 µM (NCI-H522): 66%; growth, % of control at 10 µM (A549): 84.7%; growth, % of control at 10 µM (T47D): 65.1%; growth, % of control at 10 µM (SK-MEL-5): 85%; growth, % of control at 10 µM (MDA-MB-435): 15.3%; growth, % of control at 10 µM (NCI-H322M): 97.8%; growth, % of control at 10 µM (K562): 39.2%; growth, % of control at 10 µM [17]: 77.3%; growth, % of control at 10 µM (A498): 72.5%; growth, % of control at 10 µM (ACHN): 92.3%; growth, % of control at 10 µM (SN12C): 83.5%; growth, % of control at 10 µM [18]: 56.6%; growth, % of control at 10 µM (NCI-H460): 92.6%; growth, % of control at 10 µM (NCI-H226): 85%; growth, % of control at 10 µM [19]: 85%; growth, % of control at 10 µM [20]: 98.6%; growth, % of control at 10 µM (KM12): 69.2%; growth, % of control at 10 µM (NCI-H23): 85%
